The values below come from patent publication US6635479B1, “Hypothalamus-specific polypeptides” (The Scripps Research Institute, priority 1996, dated 2003).

Ends that are not written are not given here.

Experiment [1] deals with synaptically-coupled rat hypothalamic neurons. The experiment is described as follows: voltage clamp recording of postsynaptic currents in cultured hypothalamic neurons. Format: cell-based. On the procedure: To test this hypothesis, 10-day cultures of synaptically-coupled rat hypothalamic neurons were prepared and postsynaptic currents were recorded under voltage clamp.
Rat hypothalamus from 18-day embryos was cultured for 10 days in vitro. The mediobasal hypothalamus was removed from embryonic day 18 Sprague Dawley rats. The tissue was enzymatically digested in a mild protease solution (10 U/ml papain and 0.2 mg/ml L-cysteine in Earle's balanced salt solution) for 30 minutes. Next, the tissue was pelleted, and the protease solution was removed. Tissue was then suspended in standard tissue culture medium (glutamate- and […] DMEM supplemented with 10% fetal bovine serum, 100 U/ml penicillin/streptomycin, and 6 gm/l glucose) and then triturated into a single-cell suspension. Cells were washed and pelleted an additional three times. The single-cell suspension was plated onto 22 mm^2 glass coverslips that had been coated with high-molecular-weight (540,000 Da) poly-D-lysine. High-density cultures (200,000/cm^2) were used for all experiments. Hypothalamic neural cultures were maintained in a Napco 3600 incubator (37 degree Celsius and 5% CO2) until they were ready for use. To limit non-neuronal cell proliferation cytosine arabinofuranoside (1 μM) was added to the tissue culture medium 1 day after plating.
Synaptically coupled hypothalamic neurons were recorded in voltage clamp with a whole cell pipette (holding potential=−60 mV). This recording is typical of 9 of 12 cells examined under these conditions. […] Inset boxes show higher resolution of the events indicated by the dotted line. Both boxes (in FIGS. 7A and B) were recorded with an identical delay after hcrt2 administration. A less mature hypothalamic neuron after 4 days of culture was unresponsive to 1 μM hcrt2 (FIG. 7B). Pipette solution contained 128 mM KMeSO4, 27 mM KCl, 0.4 mM EGTA, 1 mM ATP, and 0.5 mM GTP.

For experiment [2], the system named is synaptically coupled hippocampal dentate granule neurons in culture. The experiment is described as follows: voltage clamp recording in cultured hippocampal dentate granule neurons. Format: cell-based.
The nature of experiment [3]: body temperature by telemetry after intracerebroventricular infusion. It is filed as in vivo, rats. How it is done:
(§1) Synthetic, amidated hcrt2 peptide at different concentrations was infused intracerebroventricularly in rats and body temperature by was monitored telemetry. Stereotactic ablation studies have previously implicated the dorsal-lateral hypothalamus in feeding behavior, blood pressure, and central regulation of immune function, although precise nuclei have not been correlated with these activities. A threshold-type response was obtained in which, at the highest dose, 10 μg, body temperature dropped from 37.7 to 36.7 degrees Celsius over 30 minutes following administration, then recovered to normal over 2 hours. Food intake was monitored over 2 hours following administration and a 40% reduction in food intake was measured at a dose of 5 μg. […] The presumed target cells of hypocretin may not be very accessible by this unphysiological mode of administration. Local injection or intravenous administration of hypocretin might be more suitable for physiological studies.

A short description of experiment [4]: food intake after intracerebroventricular infusion. Format: in vivo, rats. As to conditions: 5 μg ICV; monitored over 2 hours following administration. On the procedure:
as §1

The mark [5] stands for this setting: 1 μM applied to bath, 10 days in vitro, holding potential −60 mV.
Setting [6] is: 1 μM, 10-day cultures, voltage clamp.

“hcrt2: synthetic peptide corresponding to amidated hcrt2; preprohypocretin residues about 70 to 96 (SEQ ID NO:10; unamidated form SEQ ID NO:9) (PGPPGLQGRLQRLLQANGNHAAGILTM-NH2)”: in experiment [1] (setting [5]), the “cells showing the typical recording (increased PSC frequency)” value was 9 of 12 and the “increase in frequency of postsynaptic events (PSCs)” value was at most 400%. In experiment [1] (setting [6]), the “cells showing no response” value amounted to 25% and the “neurons tested showing substantial, reversible increase in the frequency of postsynaptic currents” value was 75%. The “response of less mature hypothalamic neuron after 4 days of culture” value in experiment [1] (1 μM, 4 days of culture (FIG. 7B)) is recorded as “unresponsive”. Further, the “frequency of PSCs after washout of the peptide” value in experiment [1] (after washout of 1 μM) was “returned to normal baseline levels”. Further, in experiment [1] (application of 1 μg, isolated in vitro rat hypothalamic cells), the “electrical responses in voltage clamp experiments (FIGS. 7A-7B legend)” value was “produced electrical responses in adult but not immature neurons”. Moreover, the “response of hypothalamic neurons in culture for only 3-5 days” value in experiment [1] (neurons 3-5 days in culture) is on record as “little response”. Further, the “response of hippocampal dentate granule neurons” value in experiment [2] is given as “no response”. In experiment [3] (10 μg (highest dose) ICV, dropped from 37.7 over 30 minutes), the “body temperature after administration” value was determined as 36.7 degrees Celsius. Moreover, the “time to recovery of body temperature to normal” value in experiment [3] (10 μg ICV) turned out to be 2 h. The “reduction in food intake” value in experiment [4] came to 40%.
